In patent US8003660B2, “Modulators of muscarinic receptors” (Vertex Pharmaceuticals Incorporated, priority 2006, dated 2011):
Like-named read-outs stand apart in the source and are kept apart here.

How the values were obtained:
Format in all cases: cell-based
M3 muscarinic receptor = biological target: T1, M3 muscarinic receptor (Homo sapiens, UniProt P20309); experiment: Functional mobilization of intracellular calcium (FLIPR) in CHO cells expressing M3; conditions: for M3 Activity: CHO cells expressing M3, FLIPR calcium assay; for Emax: CHO; for EC50: CHO cells expressing M3, FLIPR calcium
T1 construct: expressed in transfected cells; host or cells: CHO (M3-CHO)
T1 sequence (P20309 whole entry): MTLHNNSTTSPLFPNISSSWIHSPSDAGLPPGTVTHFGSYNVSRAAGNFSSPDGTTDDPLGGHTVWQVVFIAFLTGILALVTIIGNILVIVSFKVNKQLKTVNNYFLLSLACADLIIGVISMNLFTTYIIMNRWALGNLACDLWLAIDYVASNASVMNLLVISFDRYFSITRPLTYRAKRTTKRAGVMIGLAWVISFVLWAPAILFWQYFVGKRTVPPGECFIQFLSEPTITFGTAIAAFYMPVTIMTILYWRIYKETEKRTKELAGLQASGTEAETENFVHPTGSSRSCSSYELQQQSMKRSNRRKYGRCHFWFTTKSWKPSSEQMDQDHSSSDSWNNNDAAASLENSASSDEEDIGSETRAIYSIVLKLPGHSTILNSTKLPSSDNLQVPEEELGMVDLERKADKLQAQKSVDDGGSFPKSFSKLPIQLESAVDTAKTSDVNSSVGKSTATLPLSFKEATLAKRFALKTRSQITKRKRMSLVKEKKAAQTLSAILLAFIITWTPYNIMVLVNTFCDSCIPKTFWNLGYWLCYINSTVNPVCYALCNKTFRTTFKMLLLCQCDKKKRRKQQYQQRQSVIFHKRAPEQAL
Experimental: (§1) Functional Mobilization of Intracellular Calcium to Determine Muscarinic Receptor Activity:
(§2) CHO cells expressing muscarinic receptors (M1 to M5) are grown as monolayers in tissue culture flasks at 37° C. in a humidified atmosphere containing 5% CO2 and passaged every 3-5 days. The growth media is Dulbecco's modified eagles medium (DMEM, Gibco Cat# 12430-054), containing 25 mM Hepes and supplemented with Fetal Bovine Serum (Hyclone, cat# SH30071.03), 0.1 mM of MEM non-essential amino acids (GIBCO, Cat# 11140-050), 1 mM MEM Sodium Pyruvate (GIBCO Cat# 11360-070) and 100 units/ml of Penicillin G and 100 μg/ml of Streptomycin (GIBCO Cat# 15140-122). The recombinant muscarinic receptor cell lines are grown under antibiotic pressure with media containing 25 μg/ml zeocin and 500 μg/ml G418 (M1-CHO), 4 μg/ml puromycin, 50 μg/ml zeocin and 2.5 μg/ml blasticidin (M2 and M4-CHO) or 50 μg/ml zeocin and 4 μg/ml puromycin (M3 and M5-CHO).
(§3) Cells are harvested at 80-90% confluence using Versene (GIBCO Cat# 15040-066), collected by centrifugation and seeded 18-24 hrs prior to running the calcium assay at a density of 5,000-10,000 cells/well in […], clear-bottomed 384-well plates (BD Biocoat, poly-D-lysine, Cat#356663). The day of the experiment, the cells are washed with a plate washer (Bioteck Instruments, ELX 405) using bath 1 buffer (140 mM NaCl, 4,5 mM KCl, 2 mM CaCl2, 1 mM MgCl2, 10 mM Hepes-Na, 10 mM Glucose, pH 7.4, with NaOH) containing 1 mM Probenecid. Next, the calcium dye Fluo-3 (25 μl/well of Fluo-3 AM at 4 μM, Molecular Probes F-1241, in Bath 1 buffer containing 1 mM Probenecid) is added to the 25 μl of Bath 1 remaining in each well after the plate wash and the dye is loaded at 37° C. in the tissue culture incubator for 60-90 min. The fluorescent dye is removed using the plate washer with Bath 1 containing 1 mM Probenecid, leaving 25 μl/well of this solution after the wash. Alternatively, cells can be loaded with the calcium indicator from Molecular Devices (Calcium 3 Assay Reagents, Cat #R7181) adding 5 μl of a 5× solution dye in Bath 1 containing 1 mM Probenecid (10 ml per dye flask cat#R7182 to generate a solution […]) to 20 μl of the same buffer. After loading for 60 min, the experiment can be run without having to remove the dye.
(§4) Compounds are prepared at a 2× fold concentration in a 96-well plate (round bottom, Costar Corning cat#3656), by reconstituting the pre-spotted compounds in bath 1 containing 1 mM probenecid. The final concentration DMSO is 0.5%, and the amount of DMSO is normalized across the assay plate. To determine an agonist action of the compounds on muscarinic receptors, the reconstituted compounds are added (25 μl compound/well) to the cell assay plate (containing 25 μl/well) using the multi-channel robotic system of the FLIPR 3 Instrument (Molecular Devices, Sunnyvale, Calif.). To determine a functional inhibitory action of the compounds on muscarinic receptors, the reconstituted compounds are added (25 μl compound/well) to the assay plate and pre-incubated for 15 min prior to adding 25 μl of Carbachol at 3× the EC80 for each muscarinic subtype. Alternatively, the compounds can be co-applied simultaneously with the agonist. In both assay modes, the fluorescence is recorded for 60 sec (excitation wavelength is […] and emission wavelength 540 nm) using the FLIPR 3 instrument.
(§5) The potency, efficacy and selectivity of the muscarinic compounds were evaluated by screening the compound activity across the whole family (M1 to M5 cells). Compounds were also screened for activity on other proteins such as other GPCRs and ion channels to determine selectivity on M4 receptors.

M2 muscarinic receptor = biological target: T2, M2 muscarinic receptor (Homo sapiens, UniProt P08172); experiment: Functional mobilization of intracellular calcium (FLIPR) in CHO cells expressing M2; conditions: for M2 Activity: CHO cells expressing M2, FLIPR calcium assay; for Emax: CHO; for EC50: CHO cells expressing M2, FLIPR calcium
T2 construct: expressed in transfected cells; host or cells: CHO (M2-CHO)
T2 sequence (P08172 1-466): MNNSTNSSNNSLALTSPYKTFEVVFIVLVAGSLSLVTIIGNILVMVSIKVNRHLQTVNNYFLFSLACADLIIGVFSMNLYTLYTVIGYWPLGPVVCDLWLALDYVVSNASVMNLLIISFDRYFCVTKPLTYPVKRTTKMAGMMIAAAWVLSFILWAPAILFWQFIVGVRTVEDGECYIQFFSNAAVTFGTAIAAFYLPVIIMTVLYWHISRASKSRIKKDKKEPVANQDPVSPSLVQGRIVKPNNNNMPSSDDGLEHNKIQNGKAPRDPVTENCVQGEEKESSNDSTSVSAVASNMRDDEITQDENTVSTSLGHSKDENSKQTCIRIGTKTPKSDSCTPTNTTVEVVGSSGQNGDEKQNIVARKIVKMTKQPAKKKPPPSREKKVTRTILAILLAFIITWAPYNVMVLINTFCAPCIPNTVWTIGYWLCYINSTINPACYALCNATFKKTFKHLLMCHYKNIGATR
Experimental: as §1, §2, §3, §4, §5

M4 muscarinic receptor = biological target: T3, M4 muscarinic receptor (Homo sapiens, UniProt P08173); experiment: Functional mobilization of intracellular calcium (FLIPR) in CHO cells expressing M4; conditions: for M4 Activity: CHO cells expressing M4, FLIPR calcium assay; for Emax: CHO; for EC50: CHO cells expressing M4, FLIPR calcium
T3 construct: expressed in transfected cells; host or cells: CHO (M4-CHO)
T3 sequence (P08173 1-479): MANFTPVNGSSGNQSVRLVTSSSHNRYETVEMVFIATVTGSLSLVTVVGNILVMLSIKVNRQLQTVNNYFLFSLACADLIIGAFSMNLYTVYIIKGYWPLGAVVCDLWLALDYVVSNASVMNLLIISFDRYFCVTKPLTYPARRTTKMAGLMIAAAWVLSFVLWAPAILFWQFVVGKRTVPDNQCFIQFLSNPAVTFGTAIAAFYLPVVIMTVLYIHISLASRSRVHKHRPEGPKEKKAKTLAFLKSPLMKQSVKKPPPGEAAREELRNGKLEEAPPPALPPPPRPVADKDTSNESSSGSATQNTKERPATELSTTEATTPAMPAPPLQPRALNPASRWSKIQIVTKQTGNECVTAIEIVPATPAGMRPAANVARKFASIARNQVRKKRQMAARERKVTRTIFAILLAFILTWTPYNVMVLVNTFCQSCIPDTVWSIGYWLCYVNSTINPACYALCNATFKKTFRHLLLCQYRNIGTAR
Experimental: as §1, §2, §3, §4, §5

M1 muscarinic receptor = biological target: T4, M1 muscarinic receptor (Homo sapiens, UniProt P11229); experiment: Functional mobilization of intracellular calcium (FLIPR) in CHO cells expressing M1; conditions: for M1 Activity: CHO cells expressing M1, FLIPR calcium assay; for Emax: CHO; for EC50: CHO cells expressing M1, FLIPR calcium
T4 construct: expressed in transfected cells; host or cells: CHO (M1-CHO)
T4 sequence (P11229 1-460): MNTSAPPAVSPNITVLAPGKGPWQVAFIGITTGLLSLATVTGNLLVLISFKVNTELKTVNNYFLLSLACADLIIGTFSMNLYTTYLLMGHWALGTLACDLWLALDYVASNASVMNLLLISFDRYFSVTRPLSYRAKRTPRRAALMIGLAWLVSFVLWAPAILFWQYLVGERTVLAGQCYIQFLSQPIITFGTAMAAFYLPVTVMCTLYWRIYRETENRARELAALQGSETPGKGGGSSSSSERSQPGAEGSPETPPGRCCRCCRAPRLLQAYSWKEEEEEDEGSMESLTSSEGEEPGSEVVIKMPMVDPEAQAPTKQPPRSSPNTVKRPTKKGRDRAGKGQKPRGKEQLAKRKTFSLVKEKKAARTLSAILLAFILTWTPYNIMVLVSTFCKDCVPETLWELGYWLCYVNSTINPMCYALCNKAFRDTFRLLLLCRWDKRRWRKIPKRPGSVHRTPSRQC
Experimental: as §1, §2, §3, §4, §5

[1] = 100% efficacy = maximum response obtained with the Carbachol control
[2] = 100% = maximum response obtained with the Carbachol control, read-out: M3 Efficacy
[3] = 100% = maximum response obtained with the Carbachol control, read-out: M2 Efficacy
[4] = 100% = maximum response obtained with the Carbachol control, read-out: M4 Efficacy
[5] = 100% = maximum response obtained with the Carbachol control, read-out: M1 Efficacy

Q: With `CCN(C(=O)Cc1ccncc1)[C@H]1CCC2(CCN(CCC(C)(C)C)CC2)c2ccccc21` [compound 223] as the compound, how does the “M3 Activity” value (M3 muscarinic receptor) read?
A: The value was “+ (activity was measured to be greater than 5.0 μM)”.

Q: What about the Emax (M3 muscarinic receptor; [1]) of the same compound?
A: The Emax was < 25%.

Q: And the “M2 Activity” value (M2 muscarinic receptor)?
A: Its value is “+ (activity was measured to be greater than 5.0 μM)”.

Q: And the Emax (M2 muscarinic receptor; [1])?
A: Its Emax is < 25%.

Q: And the “M4 Activity” value (M4 muscarinic receptor)?
A: Its value is “+++ (activity was measured to be less than 2.0 μM)”.

Q: What about the Emax (M4 muscarinic receptor; [1]) of the same compound?
A: The Emax was 25 to 100%.

Q: What about the “M1 Activity” value (M1 muscarinic receptor) of the same compound?
A: Its value is “+ (activity was measured to be greater than 5.0 μM)”.

Q: And the Emax (M1 muscarinic receptor; [1])?
A: Its Emax is 25 to 100%.

Q: `CC(=O)N(C(C)C)[C@H]1CCC2(CCN(CCC(C)(C)C)CC2)c2ccccc21` [compound 154] was tested. Which EC50 (M3 muscarinic receptor) did it give?
A: The EC50 was > 5 µM.

Q: What about the Emax (M3 muscarinic receptor; [2]) of the same compound?
A: Its Emax is < 25%.

Q: What about the EC50 (M2 muscarinic receptor) of the same compound?
A: The EC50 was > 5 µM.

Q: What about the Emax (M2 muscarinic receptor; [3]) of the same compound?
A: The Emax was < 25%.

Q: What about the EC50 (M4 muscarinic receptor) of the same compound?
A: The EC50 was < 2 µM.

Q: And the Emax (M4 muscarinic receptor; [4])?
A: The Emax was 25 to 100%.

Q: And the EC50 (M1 muscarinic receptor)?
A: The EC50 was < 2 µM.

Q: And the Emax (M1 muscarinic receptor; [5])?
A: The Emax was 25 to 100%.

Q: `Cn1cncc1C(=O)N[C@@H]1CCC2(CCN(CCC(C)(C)C)CC2)c2ccccc21` [compound 118] was tested. Which EC50 (M3 muscarinic receptor) did it give?
A: The EC50 was > 5 µM.

Q: And the Emax (M3 muscarinic receptor; [2])?
A: Its Emax is < 25%.

Q: And the EC50 (M2 muscarinic receptor)?
A: Its EC50 is > 5 µM.

Q: What about the Emax (M2 muscarinic receptor; [3]) of the same compound?
A: Its Emax is < 25%.

Q: What about the EC50 (M4 muscarinic receptor) of the same compound?
A: The EC50 was < 2 µM.

Q: What about the Emax (M4 muscarinic receptor; [4]) of the same compound?
A: Its Emax is 25 to 100%.

Q: What about the EC50 (M1 muscarinic receptor) of the same compound?
A: The EC50 was 2 to 5 µM.

Q: What about the Emax (M1 muscarinic receptor; [5]) of the same compound?
A: Its Emax is 25 to 100%.

Q: What does the source list for `CC#CCN(C(C)=O)[C@H]1CCC2(CCN(CCC(C)C)CC2)c2ccccc21` [compound 141]?
A: EC50 (M3 muscarinic receptor): > 5 µM; Emax (M3 muscarinic receptor; [2]): < 25%; EC50 (M2 muscarinic receptor): > 5 µM; Emax (M2 muscarinic receptor; [3]): < 25%; EC50 (M4 muscarinic receptor): < 2 µM; Emax (M4 muscarinic receptor; [4]): 25 to 100%; EC50 (M1 muscarinic receptor): < 2 µM; Emax (M1 muscarinic receptor; [5]): 25 to 100%

Q: How did the “M3 Activity” value (M3 muscarinic receptor) turn out when `CC(=O)N[C@H]1CC2(CCN(CCC(C)CCC=C(C)C)CC2)c2ccccc21` (stereo partly shown) [compound 282] was run?
A: Its value is “+ (activity was measured to be greater than 5.0 μM)”.

Q: And the Emax (M3 muscarinic receptor; [1])?
A: The Emax was < 25%.

Q: What about the “M2 Activity” value (M2 muscarinic receptor) of the same compound?
A: The value was “+ (activity was measured to be greater than 5.0 μM)”.

Q: What about the Emax (M2 muscarinic receptor; [1]) of the same compound?
A: Its Emax is < 25%.

Q: And the “M4 Activity” value (M4 muscarinic receptor)?
A: The value was “+ (activity was measured to be greater than 5.0 μM)”.

Q: What about the Emax (M4 muscarinic receptor; [1]) of the same compound?
A: The Emax was < 25%.

Q: What about the “M1 Activity” value (M1 muscarinic receptor) of the same compound?
A: Its value is “+++ (activity was measured to be less than 2.0 μM)”.

Q: And the Emax (M1 muscarinic receptor; [1])?
A: The Emax was 25 to 100%.
